In brackets after ≈: the same amount, converted by molar mass.

What all share (assay type): functional
Test [1] deals with Staphylococcus aureus. Nature of the test: Antibacterial activity against methicillin-resistant Staphylococcus aureus 1107027 clinical isolate after 20 to 24 hrs by two-fold microdilution method.
The subject of test [2] is Staphylococcus aureus. Nature of the test: Antibacterial activity against methicillin-resistant Staphylococcus aureus 814039 clinical isolate after 20 to 24 hrs by two-fold microdilution method.
Test [3] relates to Staphylococcus aureus. Nature of the test: Antibacterial activity against methicillin-resistant Staphylococcus aureus 111423 clinical isolate after 20 to 24 hrs by two-fold microdilution method.
Test [4] relates to Staphylococcus aureus. Kind of test: Antibacterial activity against methicillin-resistant Staphylococcus aureus 112106 clinical isolate after 20 to 24 hrs by two-fold microdilution method.
The subject of test [5] is Staphylococcus aureus. Kind of test: Antibacterial activity against methicillin-resistant Staphylococcus aureus 1026021 clinical isolate after 20 to 24 hrs by two-fold microdilution method.
For test [6], the system named is Staphylococcus aureus. Kind of test: Antibacterial activity against methicillin-resistant Staphylococcus aureus 1214023 clinical isolate after 20 to 24 hrs by two-fold microdilution method.
In the next test the test system is Escherichia coli. Kind of test: Antibacterial activity against Escherichia coli ATCC 25922 after 20 to 24 hrs by two-fold microdilution method.
For test [7], the system named is Staphylococcus aureus. Nature of the test: Antibacterial activity against methicillin-resistant Staphylococcus aureus 724244 clinical isolate after 20 to 24 hrs by two-fold microdilution method.
Test [8] has as its system Staphylococcus aureus. Kind of test: Antibacterial activity against methicillin-resistant Staphylococcus aureus 523005 clinical isolate after 20 to 24 hrs by two-fold microdilution method.
Test [9] deals with Staphylococcus aureus. Kind of test: Antibacterial activity against methicillin-resistant Staphylococcus aureus 504008 clinical isolate after 20 to 24 hrs by two-fold microdilution method.
The subject of test [10] is Staphylococcus aureus. Kind of test: Antibacterial activity against methicillin-resistant Staphylococcus aureus 519028 clinical isolate after 20 to 24 hrs by two-fold microdilution method.
Test [11] has as its system Staphylococcus aureus. Kind of test: Antibacterial activity against methicillin-resistant Staphylococcus aureus 831024 clinical isolate after 20 to 24 hrs by two-fold microdilution method.
Test [12] has as its system Staphylococcus aureus. Nature of the test: Antibacterial activity against methicillin-resistant Staphylococcus aureus 1025022 clinical isolate after 20 to 24 hrs by two-fold microdilution method.
Test [13] relates to Staphylococcus aureus. Nature of the test: Antibacterial activity against methicillin-resistant Staphylococcus aureus 111625 clinical isolate after 20 to 24 hrs by two-fold microdilution method.
Test [14] deals with Staphylococcus aureus. Kind of test: Antibacterial activity against methicillin-resistant Staphylococcus aureus 112430 clinical isolate after 20 to 24 hrs by two-fold microdilution method.
Test [15] has as its system Staphylococcus aureus. Kind of test: Antibacterial activity against methicillin-resistant Staphylococcus aureus 120827 clinical isolate after 20 to 24 hrs by two-fold microdilution method.
Test [16] concerns Staphylococcus aureus. Nature of the test: Potency index, ratio of vancomycin MIC to test compound MIC for […] Staphylococcus aureus ATCC 25923.
Test [17] relates to Staphylococcus aureus. Kind of test: Potency index, ratio of vancomycin MIC50 to test compound MIC50 for methicillin-resistant Staphylococcus aureus.
Test [18] deals with Staphylococcus aureus. Kind of test: Potency index, ratio of vancomycin MIC90 to test compound MIC90 for methicillin-resistant Staphylococcus aureus.

Regarding `O=C1c2cccnc2C(=O)c2c1c(C(=O)OCCCCCN1CCOCC1)c1ccc(Br)cn21`, the MIC against Staphylococcus aureus [1] is no more than 0.0078 µg/mL; in the test on Staphylococcus aureus [2] it was 0.125 µg/mL (≈ 0.237 µM); in the test on Staphylococcus aureus [3] it was 16 µg/mL (≈ 30.4 µM); with Staphylococcus aureus [4], 0.031 µg/mL (≈ 0.0589 µM); against Staphylococcus aureus [5] it was 16 µg/mL (≈ 30.4 µM); in the test with Staphylococcus aureus [6], 0.125 µg/mL (≈ 0.237 µM). The MIC in the test on Escherichia coli was 8 µg/mL (≈ 15.2 µM); in the test with Staphylococcus aureus [7] it was no more than 0.0078 µg/mL; in the test with Staphylococcus aureus [8] it was 0.031 µg/mL (≈ 0.0589 µM); in the test with Staphylococcus aureus [9], 0.063 µg/mL (≈ 0.12 µM); with Staphylococcus aureus [10], no more than 0.0078 µg/mL; against Staphylococcus aureus [11] it was 0.063 µg/mL (≈ 0.12 µM). The MIC against Staphylococcus aureus [12] is 0.031 µg/mL (≈ 0.0589 µM); in the test on Staphylococcus aureus [13], no more than 0.0078 µg/mL; against Staphylococcus aureus [14], no more than 0.0078 µg/mL; against Staphylococcus aureus [15], no more than 0.0078 µg/mL.

With `O=C1c2cccnc2C(=O)c2c1c(C(=O)OCCCCN1CCOCC1)c1ccc(Br)cn21`, the MIC in the test with Staphylococcus aureus [1] was found to be 0.25 µg/mL (≈ 0.488 µM); against Staphylococcus aureus [2] it was 0.25 µg/mL (≈ 0.488 µM); in the test with Staphylococcus aureus [3], 8 µg/mL (≈ 15.6 µM); against Staphylococcus aureus [4], 0.5 µg/mL (≈ 0.976 µM); against Staphylococcus aureus [5], 16 µg/mL (≈ 31.2 µM); in the test on Staphylococcus aureus [6], 0.031 µg/mL (≈ 0.0605 µM). Further, the MIC in the test with Escherichia coli is greater than 16 µg/mL; with Staphylococcus aureus [7], 0.125 µg/mL (≈ 0.244 µM); against Staphylococcus aureus [8] it was 0.5 µg/mL (≈ 0.976 µM); with Staphylococcus aureus [9], 0.25 µg/mL (≈ 0.488 µM); with Staphylococcus aureus [10], 0.5 µg/mL (≈ 0.976 µM); in the test on Staphylococcus aureus [11] it was 0.5 µg/mL (≈ 0.976 µM). In addition, the minimal inhibitory concentration (MIC) was found to be 0.125 µg/mL (≈ 0.244 µM) against Staphylococcus aureus [12], 0.5 µg/mL (≈ 0.976 µM) against Staphylococcus aureus [13], 0.5 µg/mL (≈ 0.976 µM) in the test with Staphylococcus aureus [14] and 0.25 µg/mL (≈ 0.488 µM) against Staphylococcus aureus [15].

As to `O=C1c2cccnc2C(=O)c2c1c(C(=O)OCCCCCCN1CCOCC1)c1ccc(Br)cn21`, the MIC was no more than 0.0078 µg/mL against Staphylococcus aureus [1]; no more than 0.0078 µg/mL against Staphylococcus aureus [2]; 16 µg/mL (≈ 29.6 µM) in the test with Staphylococcus aureus [3]; no more than 0.0078 µg/mL in the test on Staphylococcus aureus [4]; no more than 0.0078 µg/mL in the test on Staphylococcus aureus [5]; no more than 0.0078 µg/mL against Staphylococcus aureus [6]. Also, the minimum inhibitory concentration (MIC) against Escherichia coli was 8 µg/mL (≈ 14.8 µM); in the test with Staphylococcus aureus [7], no more than 0.0078 µg/mL; in the test on Staphylococcus aureus [8] it was no more than 0.0078 µg/mL; with Staphylococcus aureus [9] it was no more than 0.0078 µg/mL; in the test with Staphylococcus aureus [10], no more than 0.0078 µg/mL; in the test with Staphylococcus aureus [11], no more than 0.0078 µg/mL. Moreover, the MIC against Staphylococcus aureus [12], against Staphylococcus aureus [13], in the test on Staphylococcus aureus [14] and in the test with Staphylococcus aureus [15] was no more than 0.0078 µg/mL throughout. In addition, the Ratio with Staphylococcus aureus [16] was determined as 256.

As for `O=C1c2cccnc2C(=O)c2c1c(C(=O)OCCCCCCN1CCCCC1)c1ccc(Br)cn21`, the MIC against Staphylococcus aureus [1] is 0.063 µg/mL (≈ 0.117 µM); in the test on Staphylococcus aureus [2], 0.25 µg/mL (≈ 0.464 µM); in the test with Staphylococcus aureus [3] it was greater than 16 µg/mL; with Staphylococcus aureus [4], 0.063 µg/mL (≈ 0.117 µM); against Staphylococcus aureus [5], 16 µg/mL (≈ 29.7 µM); with Staphylococcus aureus [6], no more than 0.0078 µg/mL. For the same compound, the MIC against Escherichia coli amounted to 2 µg/mL (≈ 3.71 µM); in the test with Staphylococcus aureus [7], 0.031 µg/mL (≈ 0.0576 µM); against Staphylococcus aureus [8] it was 0.125 µg/mL (≈ 0.232 µM); in the test on Staphylococcus aureus [9] it was 0.063 µg/mL (≈ 0.117 µM); against Staphylococcus aureus [10], 0.125 µg/mL (≈ 0.232 µM); in the test with Staphylococcus aureus [11], 0.063 µg/mL (≈ 0.117 µM). Also, the MIC came to 0.063 µg/mL (≈ 0.117 µM) in the test on Staphylococcus aureus [12], 0.063 µg/mL (≈ 0.117 µM) with Staphylococcus aureus [13], 0.063 µg/mL (≈ 0.117 µM) against Staphylococcus aureus [14] and 0.031 µg/mL (≈ 0.0576 µM) against Staphylococcus aureus [15]. The Ratio in the test with Staphylococcus aureus [17] and in the test on Staphylococcus aureus [18] was 16 in each case.

`CN1CCN(CCCCCCOC(=O)c2c3c(n4cc(Br)ccc24)C(=O)c2ncccc2C3=O)CC1`: the minimum inhibitory concentration (MIC) in the test with Staphylococcus aureus [1] stood at 0.25 µg/mL (≈ 0.452 µM); against Staphylococcus aureus [2], 0.5 µg/mL (≈ 0.903 µM); in the test on Staphylococcus aureus [3], 16 µg/mL (≈ 28.9 µM); against Staphylococcus aureus [4], 0.25 µg/mL (≈ 0.452 µM); with Staphylococcus aureus [5] it was 16 µg/mL (≈ 28.9 µM); against Staphylococcus aureus [6], 0.063 µg/mL (≈ 0.114 µM). Moreover, the MIC is 4 µg/mL (≈ 7.23 µM) against Escherichia coli; 0.031 µg/mL (≈ 0.056 µM) in the test on Staphylococcus aureus [7]; 0.25 µg/mL (≈ 0.452 µM) in the test on Staphylococcus aureus [8]; 0.125 µg/mL (≈ 0.226 µM) against Staphylococcus aureus [9]; 0.125 µg/mL (≈ 0.226 µM) in the test on Staphylococcus aureus [10]; no more than 0.0078 µg/mL against Staphylococcus aureus [11]. In addition, the MIC is 0.125 µg/mL (≈ 0.226 µM) against Staphylococcus aureus [12], 0.125 µg/mL (≈ 0.226 µM) against Staphylococcus aureus [13], 0.125 µg/mL (≈ 0.226 µM) with Staphylococcus aureus [14] and 0.016 µg/mL (≈ 0.0289 µM) in the test on Staphylococcus aureus [15]. For the same compound, in the test on Staphylococcus aureus [16], the Ratio amounted to 256.

Consider `CN(C)CCCCCOC(=O)c1c2c(n3cc(Br)ccc13)C(=O)c1ncccc1C2=O`, for which the MIC against Staphylococcus aureus [1] is 0.5 µg/mL (≈ 1.03 µM); in the test with Staphylococcus aureus [2], 0.5 µg/mL (≈ 1.03 µM); in the test on Staphylococcus aureus [3], 2 µg/mL (≈ 4.13 µM); with Staphylococcus aureus [4] it was 0.25 µg/mL (≈ 0.516 µM); in the test on Staphylococcus aureus [5], 16 µg/mL (≈ 33 µM); in the test on Staphylococcus aureus [6], no more than 0.0078 µg/mL. In addition, the MIC against Escherichia coli is 1 µg/mL (≈ 2.06 µM); with Staphylococcus aureus [7], 0.125 µg/mL (≈ 0.258 µM); against Staphylococcus aureus [8] it was 0.5 µg/mL (≈ 1.03 µM); with Staphylococcus aureus [9], 0.5 µg/mL (≈ 1.03 µM); with Staphylococcus aureus [10], 0.125 µg/mL (≈ 0.258 µM); against Staphylococcus aureus [11] it was 0.125 µg/mL (≈ 0.258 µM). The MIC with Staphylococcus aureus [12] was determined as 0.5 µg/mL (≈ 1.03 µM); in the test on Staphylococcus aureus [13] it was 0.25 µg/mL (≈ 0.516 µM); with Staphylococcus aureus [14], 0.5 µg/mL (≈ 1.03 µM); in the test on Staphylococcus aureus [15] it was 0.25 µg/mL (≈ 0.516 µM). Moreover, the Ratio in the test on Staphylococcus aureus [16] is listed as 256.
